Measurements: publication PMC11528470, “Evidence for the Quercetin Binding Site of Glycogen Phosphorylase as a Target for Liver-Isoform-Selective Inhibitors against Glioblastoma: Investigation of Flavanols Epigallocatechin Gallate and Epigallocatechin” (Journal of Agricultural and Food Chemistry, 2024)
Where two headings read alike, the source gives them in different places.

How the values were obtained:
[1] = biological target: T1, Rabbit skeletal muscle glycogen phosphorylase b (rmGPb) (Oryctolagus cuniculus, UniProt P00489); assay: X-ray crystal structure ([…] Å) plus enzyme kinetics (noncompetitive Ki); assay type: biochemical
T1 construct: gene PYGM
T1 sequence (P00489 2-843): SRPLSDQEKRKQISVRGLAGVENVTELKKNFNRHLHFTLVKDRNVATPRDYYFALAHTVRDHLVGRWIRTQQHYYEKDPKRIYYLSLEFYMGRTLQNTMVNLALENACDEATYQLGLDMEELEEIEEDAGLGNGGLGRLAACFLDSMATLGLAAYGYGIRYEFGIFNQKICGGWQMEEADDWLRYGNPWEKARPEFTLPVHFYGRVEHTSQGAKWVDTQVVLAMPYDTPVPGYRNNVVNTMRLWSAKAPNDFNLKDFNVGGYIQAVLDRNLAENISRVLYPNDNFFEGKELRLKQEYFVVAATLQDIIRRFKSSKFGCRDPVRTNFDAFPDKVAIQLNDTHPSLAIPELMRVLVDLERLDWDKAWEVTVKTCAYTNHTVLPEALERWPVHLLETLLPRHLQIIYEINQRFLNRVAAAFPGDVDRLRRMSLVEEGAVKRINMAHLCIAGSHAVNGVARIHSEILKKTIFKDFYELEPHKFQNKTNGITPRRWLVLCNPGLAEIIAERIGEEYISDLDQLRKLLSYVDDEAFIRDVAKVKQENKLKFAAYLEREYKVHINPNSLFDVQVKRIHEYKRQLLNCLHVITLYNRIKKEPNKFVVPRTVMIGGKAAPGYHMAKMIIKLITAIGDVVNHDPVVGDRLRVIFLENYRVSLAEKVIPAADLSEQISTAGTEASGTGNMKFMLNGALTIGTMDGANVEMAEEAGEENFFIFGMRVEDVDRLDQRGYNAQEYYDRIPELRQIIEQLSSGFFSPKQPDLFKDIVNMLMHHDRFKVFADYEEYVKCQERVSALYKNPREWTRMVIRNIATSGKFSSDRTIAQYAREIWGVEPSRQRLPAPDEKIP

[2] = biological target: T2, human liver glycogen phosphorylase a (hlGPa) (Homo sapiens, UniProt P06737); assay: enzyme kinetics on purified hlGPa, Lineweaver–Burk; assay type: biochemical
T2 construct: gene PYGL
T2 sequence (P06737 2-847): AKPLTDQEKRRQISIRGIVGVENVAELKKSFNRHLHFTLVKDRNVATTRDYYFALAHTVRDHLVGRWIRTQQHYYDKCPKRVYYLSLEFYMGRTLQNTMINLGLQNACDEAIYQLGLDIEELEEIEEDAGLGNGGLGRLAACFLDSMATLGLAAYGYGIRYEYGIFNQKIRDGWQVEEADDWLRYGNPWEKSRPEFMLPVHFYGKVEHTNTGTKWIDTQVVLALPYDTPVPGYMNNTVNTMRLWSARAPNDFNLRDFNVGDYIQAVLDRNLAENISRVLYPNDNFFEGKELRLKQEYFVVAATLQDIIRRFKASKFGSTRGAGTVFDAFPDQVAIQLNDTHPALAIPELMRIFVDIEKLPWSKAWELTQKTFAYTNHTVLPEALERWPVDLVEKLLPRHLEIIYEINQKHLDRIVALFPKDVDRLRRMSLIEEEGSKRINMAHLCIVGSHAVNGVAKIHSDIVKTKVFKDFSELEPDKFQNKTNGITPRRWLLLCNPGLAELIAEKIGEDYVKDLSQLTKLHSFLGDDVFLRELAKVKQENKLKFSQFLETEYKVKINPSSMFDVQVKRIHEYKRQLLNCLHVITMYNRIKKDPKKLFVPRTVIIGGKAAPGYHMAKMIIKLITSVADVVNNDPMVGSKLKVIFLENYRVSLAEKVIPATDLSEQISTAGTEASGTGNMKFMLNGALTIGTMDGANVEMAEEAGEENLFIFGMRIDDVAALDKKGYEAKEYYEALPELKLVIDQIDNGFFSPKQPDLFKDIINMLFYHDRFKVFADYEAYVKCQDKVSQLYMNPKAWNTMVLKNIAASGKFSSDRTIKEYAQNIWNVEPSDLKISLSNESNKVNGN

[3] = biological target: T1, Rabbit skeletal muscle glycogen phosphorylase b (rmGPb); assay: X-ray crystal structure ([…] Å) plus enzyme kinetics (noncompetitive Ki); assay type: biochemical; remark: listed apart in the source
[4] = biological target: T2, human liver glycogen phosphorylase a (hlGPa); assay: enzyme inhibition assay on purified hlGPa; assay type: biochemical
[5] = biological target: T1, Rabbit skeletal muscle glycogen phosphorylase b (rmGPb)
[6] = biological target: T1, Rabbit skeletal muscle glycogen phosphorylase b (rmGPb); assay: X-ray crystal structure of ternary rmGPb-EGCG-glucose complex ([…] Å); multiple inhibition kinetics; assay type: binding

## O=C(O[C@@H]1Cc2c(O)cc(O)cc2O[C@@H]1c1cc(O)c(O)c(O)c1)c1cc(O)c(O)c(O)c1 [EGCG]
[1]
  Ki: 49.8 ± 1.6 µM
[2]
  Ki: 17.6 ± 0.7 µM

## Oc1cc(O)c2c(c1)O[C@H](c1cc(O)c(O)c(O)c1)[C@H](O)C2 [EGC]
[3]
  Ki: 286 ± 14.1 µM
[4]
  IC50: 194 ± 3.5 µM

## Cn1c(=O)c2c(ncn2C)n(C)c1=O [caffeine]
[5]
  X-ray crystal structure of ternary rmGPb-EGCG-caffeine complex (2.5 Å); multiple: EGCG can bind at the QBS simultaneously with glucose at the catalytic site or caffeine at the inhibitor site

## OC[C@H]1OC(O)[C@H](O)[C@@H](O)[C@@H]1O (stereo partly drawn) [glucose]
[6]
  X-ray crystal structure of ternary rmGPb-EGCG-glucose complex (2.0 Å); multiple: EGCG can bind at the QBS simultaneously with glucose at the catalytic site or caffeine at the inhibitor site
